# Patent publication US20110306635A1, “PYRIDINE COMPOUNDS AS SUBTYPE SELECTIVE MODULATORS OF ALPHA2B AND /OR ALPHA 2C […]” (ALLERGAN ,INC., priority 2009, published 2011)
# Assays:
# Format in all cases: cell-based
# [1] = target: T1, alpha 2B adrenergic receptor (Homo sapiens, UniProt P18089); assay: RSAT (Receptor Selection and Amplification Technology) assay, alpha 2B; conditions: for EC50: cells expressing alpha 2B receptor alone, receptor-mediated growth response; for RSAT efficacy, Alpha 2B: relative efficacy compared to a standard full agonist (value in parentheses)
# T1 construct: expressed in transfected cells
# T1 sequence (P18089 1-450): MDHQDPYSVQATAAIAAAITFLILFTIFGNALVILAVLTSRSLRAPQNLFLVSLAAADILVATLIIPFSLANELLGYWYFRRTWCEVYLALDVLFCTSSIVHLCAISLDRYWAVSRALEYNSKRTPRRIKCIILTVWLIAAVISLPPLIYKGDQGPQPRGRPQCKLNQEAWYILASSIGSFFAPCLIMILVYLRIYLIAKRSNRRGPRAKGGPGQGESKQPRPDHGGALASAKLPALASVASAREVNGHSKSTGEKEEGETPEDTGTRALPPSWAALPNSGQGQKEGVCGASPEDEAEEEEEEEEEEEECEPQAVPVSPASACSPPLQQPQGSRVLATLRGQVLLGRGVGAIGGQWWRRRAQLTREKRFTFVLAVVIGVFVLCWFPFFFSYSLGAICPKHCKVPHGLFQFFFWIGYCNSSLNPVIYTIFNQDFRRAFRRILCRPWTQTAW
# Protocol: (§1) The compounds were synthesized and tested for alpha adrenergic activity using the Receptor Selection and Amplification Technology (RSAT) assay (Messier et. al., 1995, Pharmacol. Toxicol. 76, pp. 308-311). Cells expressing each of the alpha-2 adrenergic receptors alone were incubated with the Compound 1 and a receptor-mediated growth response was measured. A compound's activity is expressed as its relative efficacy compared to a standard full agonist (see table). Compound of this invention activates alpha-2B and alpha-2C receptors.
# (§2) The results of the RSAT assay with several exemplary compounds of the invention are disclosed in Table 1 below together with the chemical formulas of these exemplary compounds. EC50 values are nanomolar.
# [2] = target: T2, alpha 2A adrenergic receptor (Homo sapiens, UniProt P08913); assay: RSAT (Receptor Selection and Amplification Technology) assay, alpha 2A; conditions: cells expressing alpha 2A receptor alone; receptor-mediated growth response
# T2 construct: expressed in transfected cells
# T2 sequence (P08913 1-465): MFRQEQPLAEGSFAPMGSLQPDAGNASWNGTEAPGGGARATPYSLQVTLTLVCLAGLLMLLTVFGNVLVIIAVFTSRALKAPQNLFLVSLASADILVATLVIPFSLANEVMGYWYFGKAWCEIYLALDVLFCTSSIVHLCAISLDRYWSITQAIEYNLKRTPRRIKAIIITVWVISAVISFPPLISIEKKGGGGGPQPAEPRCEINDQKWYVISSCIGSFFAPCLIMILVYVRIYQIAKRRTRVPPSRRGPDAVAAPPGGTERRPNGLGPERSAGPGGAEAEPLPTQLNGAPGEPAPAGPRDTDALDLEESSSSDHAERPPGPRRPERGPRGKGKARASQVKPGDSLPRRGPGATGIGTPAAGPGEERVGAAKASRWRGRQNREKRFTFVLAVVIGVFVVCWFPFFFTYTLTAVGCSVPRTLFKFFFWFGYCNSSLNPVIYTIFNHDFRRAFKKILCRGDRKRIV
# Protocol: as §1, §2
# [3] = target: T3, alpha 2C adrenergic receptor (Homo sapiens, UniProt P18825); assay: RSAT (Receptor Selection and Amplification Technology) assay, alpha 2C; conditions: for EC50: cells expressing alpha 2C receptor alone, receptor-mediated growth response; for RSAT efficacy, Alpha 2C: relative efficacy compared to a standard full agonist (value in parentheses)
# T3 construct: expressed in transfected cells
# T3 sequence (P18825 1-462): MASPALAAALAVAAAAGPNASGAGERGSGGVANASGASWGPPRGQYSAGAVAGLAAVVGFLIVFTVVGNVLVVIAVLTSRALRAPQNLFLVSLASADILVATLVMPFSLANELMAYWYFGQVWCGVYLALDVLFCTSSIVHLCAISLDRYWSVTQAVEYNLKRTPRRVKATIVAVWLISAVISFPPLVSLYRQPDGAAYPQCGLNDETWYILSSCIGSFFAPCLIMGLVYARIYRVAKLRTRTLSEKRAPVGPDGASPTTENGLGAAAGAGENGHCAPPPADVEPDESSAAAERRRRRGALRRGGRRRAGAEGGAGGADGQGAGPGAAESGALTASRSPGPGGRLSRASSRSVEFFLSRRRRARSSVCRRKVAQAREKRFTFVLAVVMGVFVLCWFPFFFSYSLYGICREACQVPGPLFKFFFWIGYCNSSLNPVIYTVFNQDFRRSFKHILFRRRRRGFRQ
# Protocol: as §1, §2
Compound,EC50 [1] [µM],"RSAT efficacy, Alpha 2B [1]","RSAT EC50 (nM); efficacy, Alpha 2A [2]",EC50 [3] [µM],"RSAT efficacy, Alpha 2C [3]"
"Cc1nccc(C(C)c2c[nH]cn2)c1C (stereo not shown) [4-(1-(1H-imidazol-4-yl)ethyl)-2,3-dimethylpyridine]",0.0167,0.99,Not active,1.29,0.35
"CC(c1c[nH]cn1)c1ccnc2c1CCCC2 (stereo not shown) [4-(1-(1H-imidazol-4-yl)ethyl)-5,6,7,8-tetrahydroquinoline]",0.0235,1.12,Not active,0.37,0.35
